In this assay the test system is BDF1 mice, B16 melanoma ip, median survival T/C. Nature of the assay: NCI In Vivo Anticancer Drug Screen. Data for tumor model B16 Melanoma (intraperitoneal) in B6D2F1 (BDF1) mice. The conditions noted are these: endpoint: median survival time, higher = longer survival. The procedure, abridged:
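Tumor-bearing mice received test compound or vehicle. Survival or tumor size was then measured in both groups. The treated-group figure was divided by the control-group figure.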

Where [1] appears, read: dose: 50.0 mg/kg/injection, schedule: Q01DX009 (ip), vehicle: Klucel (hydroxypropylcellulose) (HPC).
[2] abbreviates: dose: 100.0 mg/kg/injection, schedule: Q01DX009 (ip), vehicle: Klucel (hydroxypropylcellulose) (HPC).
Where [3] appears, read: dose: 200.0 mg/kg/injection, schedule: Q01DX009 (ip), vehicle: Klucel (hydroxypropylcellulose) (HPC).
Where [4] appears, read: dose: 25.0 mg/kg/injection, schedule: Q01DX009 (ip), vehicle: saline with Tween-80.
The mark [5] stands for this setting: dose: 50.0 mg/kg/injection, schedule: Q01DX009 (ip), vehicle: saline with Tween-80.
Setting [6] is: dose: 100.0 mg/kg/injection, schedule: Q01DX009 (ip), vehicle: saline with Tween-80.
The mark [7] stands for this setting: dose: 100.0 mg/kg/injection, schedule: Q04DX003 (ip), vehicle: saline with Tween-80.
The mark [8] stands for this setting: dose: 400.0 mg/kg/injection, schedule: Q01DX009 (ip), vehicle: Klucel (hydroxypropylcellulose) (HPC).

“And” between values parts separate entries of the source, which are not always exact repeats. Equal values may be shown once. Toxic doses and inconclusive results are not listed.

In the case of `CCCCC(=O)OCC(=O)[C@]1(O)Cc2c(O)c3c(c(O)c2[C@@H](OC2CC(NC(=O)C(F)(F)F)C(O)C(C)O2)C1)C(=O)c1c(OC)cccc1C3=O` (stereo partly specified), the T/C (dose: 7.78 mg/kg/injection, schedule: Q01DX004 (ip), vehicle: other) was 106 % of control; the T/C (dose: 9.38 mg/kg/injection, schedule: Q01DX001 (ip), vehicle: clinical formulation) is 111 % of control; the T/C (dose: 13.0 mg/kg/injection, schedule: Q01DX004 (ip), vehicle: other) was 115 % of control; the T/C (dose: 21.6 mg/kg/injection, schedule: Q01DX004 (ip), vehicle: other) was 122 % of control; the T/C (dose: 32.0 mg/kg/injection, schedule: Q01DX009 (ip), vehicle: distilled water + Tween-80) was 180 % of control; the T/C (dose: 36.0 mg/kg/injection, schedule: Q01DX004 (ip), vehicle: other) was 122 % of control. For the same compound, the T/C (dose: 64.0 mg/kg/injection, schedule: Q01DX009 (ip), vehicle: distilled water + Tween-80) was 158 % of control; the T/C (dose: 75.0 mg/kg/injection, schedule: Q01DX001 (ip), vehicle: clinical formulation) is 191 % of control; the T/C (dose: 128.0 mg/kg/injection, schedule: Q01DX009 (ip), vehicle: distilled water + Tween-80) was 288 % of control; the T/C (dose: 150.0 mg/kg/injection, schedule: Q01DX001 (ip), vehicle: clinical formulation) was 169 % of control and 205 % of control.
Regarding `C1CN(P2(N3CC3)=NP(N3CC3)(N3CC3)=NP(N3CC3)(N3CC3)=N2)CCO1` (stereo unspecified), the T/C is, setting by setting: (dose: 0.25 mg/kg/injection, schedule: Q01DX009 (ip), vehicle: saline) 101 % of control; (dose: 0.5 mg/kg/injection, schedule: Q01DX009 (ip), vehicle: saline) 117 % of control; (dose: 1.0 mg/kg/injection, schedule: Q01DX009 (ip), vehicle: saline) 117 % of control; (dose: 1.0 mg/kg/injection, schedule: Q02DX009 (ip), vehicle: saline) 98 % of control and 104 % of control; (dose: 2.0 mg/kg/injection, schedule: Q01DX009 (ip), vehicle: saline) 120 % of control; (dose: 2.0 mg/kg/injection, schedule: Q02DX009 (ip), vehicle: saline) 98 % of control and 121 % of control. The T/C (dose: 3.13 mg/kg/injection, schedule: Q01DX009 (ip), vehicle: saline) is 111 % of control and 112 % of control; the T/C (dose: 3.13 mg/kg/injection, schedule: Q02DX009 (ip), vehicle: saline) was 110 % of control and 115 % of control; the T/C (dose: 4.0 mg/kg/injection, schedule: Q01DX009 (ip), vehicle: saline) is 116 % of control; the T/C (dose: 4.0 mg/kg/injection, schedule: Q02DX009 (ip), vehicle: saline) was 106 % of control and 122 % of control; the T/C (dose: 6.25 mg/kg/injection, schedule: Q02DX009 (ip), vehicle: saline) was 93 % of control; the T/C (dose: 8.0 mg/kg/injection, schedule: Q02DX009 (ip), vehicle: saline) was 108 % of control. Also, the T/C was 154 % of control and 156 % of control (dose: 12.5 mg/kg/injection, schedule: Q02DX009 (ip), vehicle: saline); 151 % of control and 171 % of control (dose: 16.0 mg/kg/injection, schedule: Q02DX009 (ip), vehicle: saline); 164 % of control and 186 % of control and 200 % of control (dose: 25.0 mg/kg/injection, schedule: Q02DX009 (ip), vehicle: saline).
For the compound `CC(=O)NS(=O)(=O)c1ccc(NC(=O)c2ccccc2C(=O)O)cc1`, the T/C is 98 % of control under setting [1], 96 % of control under setting [2] and 93 % of control under setting [3].
Take `COc1ccc(OC)c(C2N(Cc3ccccc3N(C)C)CCCN2Cc2ccccc2N(C)C)c1`: the T/C under setting [4] is 102 % of control, the T/C under setting [5] is 93 % of control and the T/C under setting [6] is 90 % of control.
Turning to `CC(C)(C)OC(=O)N1CCCC1C(=O)Oc1ccc([N+](=O)[O-])cc1` (stereo unspecified), the T/C (dose: 25.0 mg/kg/injection, schedule: Q04DX003 (ip), vehicle: saline with Tween-80) was 94 % of control; the T/C (dose: 50.0 mg/kg/injection, schedule: Q04DX003 (ip), vehicle: saline with Tween-80) was 109 % of control; the T/C under setting [7] was 104 % of control.
Consider `C[C@]12CCC(=O)C=C1CC[C@@H]1[C@@H]2C(=O)C[C@@]2(C)[C@H]1CC[C@]2(O)C(=O)CO`, for which the T/C runs as follows: (dose: 40.0 mg/kg/injection, schedule: Q02DX009 (ip), vehicle: Klucel (hydroxypropylcellulose) (HPC)) 100 % of control; (dose: 80.0 mg/kg/injection, schedule: Q02DX009 (ip), vehicle: Klucel (hydroxypropylcellulose) (HPC)) 112 % of control; (dose: 160.0 mg/kg/injection, schedule: Q02DX009 (ip), vehicle: Klucel (hydroxypropylcellulose) (HPC)) 97 % of control; (dose: 640.0 mg/kg/injection, schedule: Q02DX009 (ip), vehicle: Klucel (hydroxypropylcellulose) (HPC)) 97 % of control.
Turning to `CCOc1ccccc1NC(=O)Nc1ccccc1`, the T/C runs as follows: under setting [2], 102 % of control; under setting [3], 103 % of control; under setting [8], 99 % of control.
With `OCC(O)c1ccccn1` (stereo unspecified), the T/C runs as follows: (dose: 100.0 mg/kg/injection, schedule: Q01DX009 (ip), vehicle: saline) 123 % of control; (dose: 400.0 mg/kg/injection, schedule: Q01DX009 (ip), vehicle: saline) 123 % of control.
Regarding `CC(=O)O[C@@H]1[C@@H](O)[C@H]2O[C@@H]3C=C(C)CC[C@]3(CO)[C@]1(C)[C@@]21CO1`, the T/C reads like this: (dose: 1.25 mg/kg/injection, schedule: Q01DX009 (ip), vehicle: saline with Tween-80) 111 % of control; (dose: 2.5 mg/kg/injection, schedule: Q01DX009 (ip), vehicle: saline with Tween-80) 103 % of control; (dose: 5.0 mg/kg/injection, schedule: Q01DX009 (ip), vehicle: saline with Tween-80) 116 % of control; (dose: 10.0 mg/kg/injection, schedule: Q01DX009 (ip), vehicle: saline with Tween-80) 100 % of control.
In the case of `C/C=C(\C)c1cc(=O)c2c(C)cc3c(c2o1)C(=O)c1c(O)c(C2CC(C)(N(C)C)C(O)C(C)O2)cc(C2CC(N(C)C)C(O)C(C)O2)c1C3=O` (stereo unspecified), the T/C is 104 % of control (dose: 0.5 mg/kg/injection, schedule: Q01DX009 (ip), vehicle: Klucel (hydroxypropylcellulose) (HPC)); 102 % of control (dose: 31.0 micrograms/kg/injection, schedule: Q01DX009 (ip), vehicle: saline); 123 % of control (dose: 39.06 micrograms/kg/injection, schedule: Q01DX009 (ip), vehicle: saline); 113 % of control (dose: 62.0 micrograms/kg/injection, schedule: Q01DX009 (ip), vehicle: saline); 118 % of control (dose: 156.0 micrograms/kg/injection, schedule: Q01DX009 (ip), vehicle: saline); 105 % of control (dose: 250.0 micrograms/kg/injection, schedule: Q01DX009 (ip), vehicle: saline). Moreover, the T/C is 122 % of control (dose: 312.5 micrograms/kg/injection, schedule: Q01DX009 (ip), vehicle: saline); 94 % of control and 100 % of control (dose: 625.0 micrograms/kg/injection, schedule: Q01DX009 (ip), vehicle: saline).
In the case of `CCCCNC(=O)Nc1cccc(C)c1C`, the T/C by setting is: under setting [2], 88 % of control; under setting [8], 94 % of control.
For `S=C(Nc1ccccn1)c1ccccn1`, the T/C (dose: 12.5 mg/kg/injection, schedule: Q01DX009 (ip), vehicle: saline with Tween-80) is 92 % of control; the T/C under setting [4] was 112 % of control; the T/C under setting [5] was 94 % of control; the T/C under setting [6] is 93 % of control.
Regarding `COc1ccccc1NC(N)=S`, the T/C is 110 % of control (dose: 25.0 mg/kg/injection, schedule: Q01DX009 (ip), vehicle: Klucel (hydroxypropylcellulose) (HPC)); 103 % of control under setting [1]; 100 % of control under setting [2].
For `COc1ccccc1N1CCN(CCc2c[nH]c3cc4c(cc23)OCO4)CC1`, the T/C by setting is: (dose: 1.56 mg/kg/injection, schedule: Q01DX009 (ip), vehicle: Klucel (hydroxypropylcellulose) (HPC)) 89 % of control; (dose: 6.25 mg/kg/injection, schedule: Q01DX009 (ip), vehicle: Klucel (hydroxypropylcellulose) (HPC)) 89 % of control.
For `CC1(O)CC2CCC1C2` (stereo unspecified), the T/C was 102 % of control under setting [7]; 102 % of control (dose: 200.0 mg/kg/injection, schedule: Q04DX003 (ip), vehicle: saline with Tween-80); 100 % of control (dose: 400.0 mg/kg/injection, schedule: Q04DX003 (ip), vehicle: saline with Tween-80).
Consider `Cc1cccc(NC(=O)CCl)c1`, for which the T/C is, setting by setting: (dose: 50.0 mg/kg/injection, schedule: Q01DX009 (ip), vehicle: carboxymethylcellulose (CMC)) 109 % of control; (dose: 100.0 mg/kg/injection, schedule: Q01DX009 (ip), vehicle: carboxymethylcellulose (CMC)) 101 % of control.
